Converted amounts (≈) assume the structure as drawn. Read-outs that look alike come from different tables or passages of the source.
Key:
[1] = Urinary recovery after IM administration to rats; format: in vivo; conditions: rat, urine, read-out: Urinary recovery, percentage of administered dose recovered; for dose excreted at 6 h: 0-6 hr
Description: Urinary Recovery after IM
Administration of 50 and 10 mg./kg. to Rats
(§1) The compounds were prepared in 0.01% phosphate buffer. BL-S640 was used a
(§2) standard for all compounds.

[2] = Liquid chromatography, % free BL-S640 present (hydrolysis in solution); format: physicochemical; conditions: 1 mg./ml.
Description: 5. Liquid Chromatography (concentration = 1 mg./ml.)
Time in Hours % Free BL-S640 Present

[3] = system: Str. pyogenes A9604; assay: Antibiotic spectrum in nutrient broth, MIC; format: cell-based; conditions: Streptococcus pyogenes, 10^-3 dilution of overnight culture, 45% AAB + 5% serum + 50% broth, BL-S1052 adjusted for 97.5% content of BL-S640
Text: (§3) Antibiotic Spectrum in Nutrient Broth
(§4) *45% AAB + 5% serum + 50% broth listed above.
(§5) **Dilution of overnight broth culture.
(§6) ^(1) Adjusted for 97.5% content of BL-S640. In other words, the
(§7) numerical values are lowered, i.e. improved. This adjustment was also mad
(§8) in the tests reported below or in the alternative, a larger weight was
(§9) used to provide equivalent dosage.

[4] = system: S. pneumoniae A9585; assay: Antibiotic spectrum in nutrient broth, MIC; format: cell-based; conditions: Streptococcus pneumoniae, 10^-3 dilution of overnight culture, 45% AAB + 5% serum + 50% broth, BL-S1052 adjusted for 97.5% content of BL-S640
Text: as §3, §4, §5, §6, §7, §8, §9

[5] = system: S. aureus Meth-Res A15097; assay: Antibiotic spectrum in nutrient broth, MIC; format: cell-based; conditions: Staphylococcus aureus; 10^-3 dilution; BL-S1052 adjusted for 97.5% content of BL-S640
Text: as §3, §5, §6, §7, §8, §9

[6] = system: Pr. mirabilis A9900; assay: Antibiotic spectrum in nutrient broth, MIC; format: cell-based; conditions: Proteus mirabilis, 10^-4 dilution, BL-S1052 adjusted for 97.5% content of BL-S640
Text: as §3, §5, §6, §7, §8, §9

[7] = system: K. pneumoniae A9977; assay: Antibiotic spectrum in nutrient broth, MIC; format: cell-based; conditions: Klebsiella pneumoniae, 10^-4 dilution, BL-S1052 adjusted for 97.5% content of BL-S640
Text: as §3, §5, §6, §7, §8, §9

[8] = system: Ent. cloacae A9657; assay: Antibiotic spectrum in nutrient broth, MIC; format: cell-based; conditions: Enterobacter cloacae, 10^-4 dilution, BL-S1052 adjusted for 97.5% content of BL-S640
Text: as §3, §5, §6, §7, §8, §9

[9] = system: Ser. marcescens A20019; assay: Antibiotic spectrum in nutrient broth, MIC; format: cell-based; conditions: Serratia marcescens, 10^-4 dilution, BL-S1052 adjusted for 97.5% content of BL-S640
Text: as §3, §5, §6, §7, §8, §9

[10] = system: E. coli A9675; assay: Antibiotic spectrum in nutrient broth, MIC; format: cell-based; conditions: Escherichia coli, 10^-4 dilution, BL-S1052 adjusted for 97.5% content of BL-S640
Text: as §3, §5, §6, §7, §8, §9

[11] = system: Ps. Aeruginosa A9843A; assay: Antibiotic spectrum in nutrient broth, MIC; format: cell-based; conditions: Pseudomonas aeruginosa
Text: as §3, §5, §6, §7, §8, §9

[12] = system: E. coli Juhl A15119; assay: Antibiotic spectrum in nutrient broth, MIC; format: cell-based; conditions: Escherichia coli, JUHLA15119; 10^-4 dilution; BL-S1052 adjusted for 97.5% content of BL-S640
Text: as §3, §5, §6, §7, §8, §9

[13] = system: Sal. enteritidis A9531; assay: Antibiotic spectrum in nutrient broth, MIC; format: cell-based; conditions: Salmonella enterica, 10^-4 dilution, BL-S1052 adjusted for 97.5% content of BL-S640
Text: as §3, §5, §6, §7, §8, §9

[14] = system: Ent. cloacae A9656; assay: Antibiotic spectrum in nutrient broth, MIC; format: cell-based; conditions: Enterobacter cloacae, 10^-4 dilution, BL-S1052 adjusted for 97.5% content of BL-S640
Text: as §3, §5, §6, §7, §8, §9

[15] = system: K. pneumoniae A15130; assay: Antibiotic spectrum in nutrient broth, MIC; format: cell-based; conditions: Klebsiella pneumoniae, 10^-4 dilution, BL-S1052 adjusted for 97.5% content of BL-S640
Text: as §3, §5, §6, §7, §8, §9

[16] = system: S. aureus Smith A9537; assay: Antibiotic spectrum in nutrient broth, MIC; format: cell-based; conditions: Staphylococcus aureus, BL-S1052 adjusted for 97.5% content of BL-S640
Text: as §3, §5, §6, §7, §8, §9

[17] = Mouse blood levels after IM administration; format: in vivo; conditions: IM 10 mg./kg.
Description: Mouse Blood Levels after IM
Administration of 10 mg./kg. Body Weight
Blood Levels (mcg./ml.)
as §1, §2

[18] = Paper chromatograms of rat urine for antibiotically active metabolites after IM administration; format: in vivo; conditions: rat urine 0-2 and 2-4 hours
Description: Paper chromatograms were run on rat urine collected between 0 and 2 and between 2 and 4 hours, following IM administration of BL-S1052 and BL-S640, for the detection of antibiotically active metabolites using descending chromatography with system No. 9 (butyl acetate:n-butanol:glacial acetic acid:H2 O = 80:15:40:24).

[19] = Water solubility; format: physicochemical
Description: The sodium and potassium salts of formula I may be dissolved in water to form relatively concentrated solutions of at least 250 mg./ml. of activity. Concentrations of 250 mg./ml. of activity (pH 5.7-7.2) of these salts have acceptable aqueous stabilities.
g. Water solubility = Approximately 10 mg./ml. in water at 23° C.
3. Solubility = greater than 400 mg./ml.

[20] = Mouse blood levels after PO administration; format: in vivo; conditions: PO 100 mg./kg.
Description: ______________________________________
Mouse Blood Levels after PO
Administration of 100 mg./kg. Body Weight
The compounds were prepared in Tween-CMC. BL-S640 was used as standard fo

O=C(O)C1=C(CSc2c[nH]nn2)CSC2C(N3C(=O)C(c4ccc(O)cc4)NC3c3ccco3)C(=O)N12 (centres unmarked) [BL-S1052]
dose excreted at 6 h ([1]; 10 mg/kg, IM 10 mg./kg.): 21.7% | dose excreted at 24 h ([1]; 10 mg/kg, IM 10 mg./kg., 0-24 hr): 24.1% | dose excreted at 24 h ([1]; 10 mg/kg, IM 10 mg./kg., 6-24 hr): 2.4% | dose excreted at 6 h ([1]; 50 mg/kg, IM 50 mg./kg.): 40.3% | dose excreted at 24 h ([1]; 50 mg/kg, IM 50 mg./kg., 0-24 hr): 42.4% | dose excreted at 24 h ([1]; 50 mg/kg, IM 50 mg./kg., 6-24 hr): 2.1% | % Free BL-S640 Present ([2]; 0 hours): 69.2% | % free BL-S640 present at 1 h ([2]; 1 hour): 74.2% | % free BL-S640 present at 2 h ([2]; 2 hours): 94.5% | MIC [3]: 0.03 µg/mL | MIC [4]: 0.06 µg/mL | MIC [5]: 4 µg/mL (≈ 7.4 µM) | MIC [6]: 0.5 µg/mL (≈ 0.925 µM) | MIC [7]: 0.5 µg/mL (≈ 0.925 µM) | MIC [8]: 0.5 µg/mL (≈ 0.925 µM) | MIC [9]: > 125 µg/mL | MIC [10]: 2 µg/mL (≈ 3.7 µM) | MIC [11]: > 125 µg/mL | MIC [12]: 1 µg/mL (≈ 1.85 µM) | MIC [13]: 0.13 µg/mL (≈ 0.24 µM) | MIC [14]: > 125 µg/mL | MIC [15]: 1 µg/mL (≈ 1.85 µM) | MIC ([16]; SMITHA9537, 10^-4 dilution, nutrient broth): 0.13 µg/mL (≈ 0.24 µM) | MIC ([16]; SMITHA9537, +50% serum, 10^-4 dilution): 2 µg/mL (≈ 3.7 µM) | concentration at 0.25 h ([17]; 0.25 hr): 15100 ng/mL | concentration at 0.5 h ([17]; 0.5 hr): 15100 ng/mL | concentration at 1 h ([17]; 1 hr): 11500 ng/mL | concentration at 1.5 h ([17]; 1.5 hr): 7800 ng/mL | Hydrolysis of the derivative to parent compound BL-S640 and its presumed metabolite [18]: complete hydrolysis | Antibiotically active spots in urine ([18]; paper chromatography system No. 9): Two spots identically located | solubility [19]: > 400 mg/mL | concentration at 0.5 h ([20]; 0.5 hr): 45200 ng/mL | concentration at 1 h ([20]; 1 hr): 48100 ng/mL | concentration at 2 h ([20]; 2 hr): 31900 ng/mL | concentration at 3.5 h ([20]; 3.5 hr): 14400 ng/mL
